Data reported in PubChem BioAssay AID1324 (NMMLSC, 2008).
The source made the active and inactive calls. How the calls were made is not given here.

What follows are compounds tested against glutathione S-transferase (GST-GSH binding) (assay: GST–glutathione interaction disruption – biochemical, multiplex beads, flow cytometry, HPSMTB buffer, profiling panel (AID 1324;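 further: glutathione beads loaded with GST-green fluorescent protein and no fluorescent Bim peptide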)). Settings: multiplex bead flow cytometry, MCF.

Compound	EC50
Cc1ccnc(SCc2cc(=O)c(OC(=O)c3ccc(Cl)c([N+](=O)[O-])c3)co2)n1	inactive

Same assay, conditions: multiplex bead flow cytometry, MCF, concentration not given here

Compound	percent span inhibition
O=C(Cn1c2ccccc2c(=O)c2ccccc21)N/N=C/c1ccc(N2CCCC2)c([N+](=O)[O-])c1	inactive
COc1cccc(/C=C2/SC(=O)N(C)C2=O)c1OCc1ccc(C(=O)O)cc1	inactive
CCN1CCN(CC(=O)c2c[nH]c3ccc(C)cc23)CC1	inactive
COc1ccccc1-n1c(-c2cc(-c3ccc(F)cc3)n[nH]2)n[nH]c1=S	inactive
Cc1ccc2c(c1)C1CN(C)CCC1N2C(=O)Nc1cccc(Cl)c1 (centres undefined)	inactive
O=C(NC1=C(NC2CCS(=O)(=O)C2)C(=O)c2ccccc2C1=O)c1ccccc1 (centres undefined)	inactive
Nc1ccc(C2=Nc3cccc4cccc(c34)N2)cc1	inactive
CC(C)=C1C(=O)NN(c2ccc(C)c(Cl)c2)C1=O	inactive
CCN1C(=O)/C(=C\C=C2/C=CC=CN2CC)SC1=S	inactive
C/C(=C\c1ccco1)C1Nc2cccc3cccc(c23)N1	inactive
Cc1cc(-c2csc(N)n2)c(C)n1CCc1ccccc1	inactive
O=S1(=O)N=C(N(CCO)/N=C/c2ccccc2)c2ccccc21	inactive
COc1ccc(CCNC(=O)c2cc(-c3ccccn3)nc3c(Cl)cccc23)cc1OC	inactive
COc1ccc(NC(=O)c2cc(-c3ccc(C)o3)nc3ccccc23)cc1OC	inactive
Cc1[nH]c2ccccc2c1C(=O)COC(=O)c1c(-c2c(F)cccc2Cl)noc1C	inactive
CCN(CC)c1ccc(NC(=O)c2ccccc2Br)cc1S(=O)(=O)Nc1ccccc1OC	inactive
Cc1cc(N)ccc1N1CCCC1	inactive
N#Cc1ccc(N=c2ssnc2Cl)cc1	inactive
NC(=O)c1c(NC(=O)C2CCCO2)sc2c1CCCC2 (centres undefined)	inactive

Compound	percent span inhibition
Cc1nc2cc(F)ccc2n1C1CCN(C(=O)c2c(F)cccc2F)CC1	inactive
O=C1C=C(Nc2ccccc2)C(=O)c2ccccc21	inactive
CCOC(=O)CSC1=NC(=O)/C(=C/c2ccc(OC)cc2)S1	inactive
O=C1/C(=C/c2cccs2)Sc2ccccc21	inactive
O=C(C[n+]1ccc(-c2nnc3n2CCC3)cc1)c1ccc(Cl)c(Cl)c1	inactive
Cc1ccc(NC(=O)CC2S/C(=N/N=C/c3c[nH]c4ccccc34)NC2=O)cc1 (centres undefined)	inactive
CN(C)c1ccc(Nc2nc(-c3cccnc3)cs2)cc1	inactive
Cc1c(NC2=C(Cl)C(=O)N(c3ccccc3Cl)C2=O)c(=O)n(-c2ccccc2)n1C	inactive
Cc1cc(C)c[n+](-c2nc3ccccc3nc2C(=C=[N-])C#N)c1	inactive
COc1cccc(-n2nnnc2SCC(=O)Nc2cccc(NC(C)=O)c2)c1	inactive
COc1cc(NC(=S)NCCCO)c(OC)cc1Cl	inactive
Clc1nc2ccccc2cc1/C=N/Nc1nc2ccccc2[nH]1	inactive
Cc1ccc(NC(=O)CSc2nc3ccccc3c(=O)n2CCCN2CCCCC2)cc1Cl	inactive
O=C1Nc2ccc([N+](=O)[O-])cc2OC1CCN1CCN(Cc2ccc3c(c2)OCO3)CC1 (centres undefined)	inactive
COc1ccc(Cc2c(O)nc(SC)n(C(C)=O)c2=O)cc1	inactive
O=C1c2ccccc2-c2onc3ccc(N4CCCC4)c1c23	inactive
O=C(CCCN1C(=O)c2cccc3cccc(c23)C1=O)N1CCN(c2ccccn2)CC1	inactive
Cc1cc(NC(=O)CCCC(=O)NCc2ccccc2)no1	inactive
O=C(O)c1ccc(NC2=C/C(=N/S(=O)(=O)c3ccccc3)c3ccccc3C2=O)cc1	inactive
